Earlier results on 2 compounds are cited in US8960128B2, “Topical anesthetic composition” (Animal Ethics Pty Ltd, priority 2005, dated 2015).

The conditions of data set [1]: typically up to about; depending on the method of administration.
The conditions of data set [2]: sheep, topically applied.

The structures appear in SMILES notation.

`CCCCN1CCCCC1C(=O)Nc1c(C)cccc1C` (centres unmarked) [bupivacaine]: the duration of anesthesia in data set [1] is 6 to 12 h.

Turning to `CCN(CC)CC(=O)Nc1c(C)cccc1C` [lignocaine], the “total dose that should not be exceeded” value in data set [2] is ≤ 50 mg/kg.
